In patent US11849728B2, “Method for controlling soybean rust fungus having resistance against Qo site inhibitor” (SUMITOMO CHEMICAL COMPANY, LIMITED, priority 2018, dated 2023):

Test system: soybean rust fungus (Phakopsora pachyrhizi) having an amino acid substitution of F129L on mitochondrial cytochrome b protein
Experiment: Leaf disk test for control of soybean rust (Test Example 1 / Comparative Test Example 1)
Assay type: in vivo
Conditions: method of Test Example 1
Experimental: Soybean leaf (cv; Kurosengoku) was punched out to 1 cm diameter to prepare a leaf disk. Each 1 mL of an agar medium (agar concentration 1.2%) was dispensed in 24 well microplate. A piece of the leaf disk was placed on each well. To a mixture of 0.5 μL of Sorpol (registered trademark) 1200KX, 4.5 μL of DMSO, and 5 μL of xylene was added 20 μL of a solution containing 10000 ppm of the test compound in DMSO. The resulting mixture was diluted with ion exchange water to prepare a spray solution containing a predetermined concentration of the test compound. The spray solution was sprayed in 10 μL per one leaf disk. After 1 day, an aqueous suspension of spores of soybean rust fungus (Phakopsora pachyrhizi) having an amino acid substitution of F129L on mitochondrial cytochrome b protein (1.0×10^5/mL) was inoculated onto the leaf disks. After the inoculation, the microplate was placed in a growth chamber (light on for 6 hours, light off for 18 hours, 23° C. temperature, 60% humidity). After 1 day, the leaf disks were air-dried to disappear water droplets on the surface of the leaf disk, and the microplate was placed again in the growth chamber for 12 days. Thereafter, a lesion area of soybean rust disease was assessed. […] Here the untreated means that the spray solution containing the test compound was not sprayed onto the leaf disk.
The test was conducted by using as a test compound the compound 3 or 8 of the present invention, the present compound 6, 12, 13, 22, 38, 40, 48, 51, 64 or 84, pyraclostrobin, azoxystrobin, picoxystrobin, orysastrobin, dimoxystrobin, metominostrobin, or pyribencarb at 12.5 ppm or 3.1 ppm according to a method described in the Test Example 1. The results are indicated in [Table A], [Table B], and [Table C].

COC(=O)N(OC)c1ccccc1COc1ccn(-c2ccc(Cl)cc2)n1 [pyraclostrobin, reference compound]
Lesion area (%) (3.1 ppm): 100%
Lesion area (%) (12.5 ppm): 100%

CO/N=C(\Cc1cc(C#CC(C)(C)C)ccc1C)C(=O)OC [Present Compound 6]
Lesion area (%) (3.1 ppm): 0%
Lesion area (%) (12.5 ppm): 0%

CO/C=C(\Oc1cc(/C=C/C2CC2)ccc1C)C(=O)OC [Compound 3 of the present invention]
Lesion area (%) (3.1 ppm): 10%
Lesion area (%) (12.5 ppm): 0%

CCCO/N=C(\C)c1ccc(C)c(C/C(=N\OC)C(=O)NC)c1 [Present Compound 51]
Lesion area (%) (12.5 ppm): 0%

CO/C=C(/C(=O)OC)c1ccccc1COc1cccc(C(F)(F)F)n1 [picoxystrobin, reference compound]
Lesion area (%) (3.1 ppm): 100%
Lesion area (%) (12.5 ppm): 100%

CO/C=C(/C(=O)OC)c1ccccc1Oc1cc(Oc2ccccc2C#N)ncn1 [azoxystrobin, reference compound]
Lesion area (%) (3.1 ppm): 100%
Lesion area (%) (12.5 ppm): 100%

COc1nn(C)c(=O)n1Cc1cc(C#C[Si](C)(C)C)ccc1C [Present Compound 13]
Lesion area (%) (3.1 ppm): 30%
Lesion area (%) (12.5 ppm): 0%

CNC(=O)/C(=N/OC)c1ccccc1Oc1ccccc1 [metominostrobin, reference compound]
Lesion area (%) (3.1 ppm): 100%
Lesion area (%) (12.5 ppm): 100%

CO/C=C(\Oc1cc(/C(C)=N/OCc2cccc(C)c2)ccc1C)C(=O)OC [Present Compound 48]
Lesion area (%) (12.5 ppm): 0%

Cc1ccc(-c2ccccc2)cc1Cn1c(C(F)F)nn(C)c1=O [Present Compound 40]
Lesion area (%) (3.1 ppm): 0%
Lesion area (%) (12.5 ppm): 0%

CO/C=C(\Oc1cc(/C(C)=N/OCC2CCC2)ccc1C)C(=O)OC [Present Compound 84]
Lesion area (%) (12.5 ppm): 0%

CNC(=O)/C(=N/OC)c1ccccc1CO/N=C(C)/C(=N/OC)C(/C)=N/OC [orysastrobin, reference compound]
Lesion area (%) (3.1 ppm): 100%
Lesion area (%) (12.5 ppm): 100%

CO/C=C(\Oc1cc(-c2ccc(F)cc2)ccc1C)C(=O)OC [Present Compound 22]
Lesion area (%) (3.1 ppm): 10%
Lesion area (%) (12.5 ppm): 0%

COC(=O)NCc1cc(/C(C)=N/OCc2cccc(C)n2)ccc1Cl [pyribencarb, reference compound]
Lesion area (%) (3.1 ppm): 100%
Lesion area (%) (12.5 ppm): 100%

CNC(=O)/C(=N/OC)c1ccccc1COc1cc(C)ccc1C [dimoxystrobin, reference compound]
Lesion area (%) (3.1 ppm): 100%
Lesion area (%) (12.5 ppm): 100%

CNC(=O)/C(Cc1cc(C#CC(C)(C)OC)ccc1C)=N/OC [Present Compound 12]
Lesion area (%) (3.1 ppm): 0%
Lesion area (%) (12.5 ppm): 0%

CO/C=C(\Oc1cc(-c2cccs2)ccc1C)C(=O)OC [Present Compound 64]
Lesion area (%) (3.1 ppm): 10%
Lesion area (%) (12.5 ppm): 0%
